In ChEMBL document CHEMBL5696442, “Discovery of type II inhibitors of TGFβ-activated kinase 1 (TAK1) and mitogen-activated protein kinase kinase kinase kinase 2 (MAP4K2)” (J Med Chem, 2015) one finds inhibition data, which are given here for three molecules.

The target in experiment [1] is Serine/threonine-protein kinase VRK2 (Homo sapiens) (UniProt Q86Y07). Description: Inhibition of VRK2 Lys2 labeling site in human A-375 cells at 0.05 uM by KiNativ Profiling analysis relative to control. It counts as cell-based.
Serine/threonine-protein kinase VRK2 (Homo sapiens), sequence (Q86Y07 whole entry, the tested form may be a part): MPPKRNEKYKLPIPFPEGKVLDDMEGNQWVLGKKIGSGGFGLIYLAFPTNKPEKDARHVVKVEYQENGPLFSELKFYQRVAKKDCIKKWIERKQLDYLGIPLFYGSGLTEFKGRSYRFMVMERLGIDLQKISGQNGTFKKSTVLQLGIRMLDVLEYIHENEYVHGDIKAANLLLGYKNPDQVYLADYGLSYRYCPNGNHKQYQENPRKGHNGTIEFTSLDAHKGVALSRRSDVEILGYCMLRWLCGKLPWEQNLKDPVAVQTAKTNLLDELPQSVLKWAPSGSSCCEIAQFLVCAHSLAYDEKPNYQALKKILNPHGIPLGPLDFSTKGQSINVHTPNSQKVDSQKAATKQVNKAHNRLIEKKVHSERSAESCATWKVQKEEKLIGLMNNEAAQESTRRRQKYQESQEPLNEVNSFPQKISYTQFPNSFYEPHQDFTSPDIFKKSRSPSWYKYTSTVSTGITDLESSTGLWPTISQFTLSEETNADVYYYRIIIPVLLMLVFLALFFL
Experiment [2] addresses Ribosomal protein S6 kinase alpha-4 (Homo sapiens) (UniProt O75676). Description: Inhibition of N-terminal RPS6KA4 kinase domain 1 (unknown origin) at 1 uM by Ambit Kinomescan binding assay relative to control.
Experiment [3] has as its target Serine/threonine-protein kinase 38-like (Homo sapiens) (UniProt Q9Y2H1). Description: Inhibition of NDR2 Lys1 labeling site harbouring DTGHIYAMKILR in human A-375 cells at 5 uM by KiNativ Profiling analysis relative to control. It counts as cell-based.
For experiment [4], the target named is Cyclin-dependent kinase 7 (Homo sapiens) (UniProt P50613). Description: Inhibition of CDK7 Lys2 labeling site in human A-375 cells at 0.05 uM by KiNativ Profiling analysis relative to control. It counts as cell-based.
Cyclin-dependent kinase 7 (Homo sapiens), sequence (P50613 whole entry, the tested form may be a part): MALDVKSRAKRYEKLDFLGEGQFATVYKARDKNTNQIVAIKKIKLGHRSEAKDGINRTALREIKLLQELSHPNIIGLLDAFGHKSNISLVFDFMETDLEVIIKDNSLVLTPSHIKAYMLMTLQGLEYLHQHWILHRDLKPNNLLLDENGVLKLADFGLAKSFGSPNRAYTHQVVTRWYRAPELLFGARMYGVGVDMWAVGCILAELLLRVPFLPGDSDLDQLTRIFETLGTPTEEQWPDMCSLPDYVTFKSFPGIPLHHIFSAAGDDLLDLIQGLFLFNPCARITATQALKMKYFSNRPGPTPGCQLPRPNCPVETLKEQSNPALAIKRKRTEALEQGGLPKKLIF
Experiment [5] deals with Ankyrin repeat and protein kinase domain-containing protein 1 (Homo sapiens) (UniProt Q8NFD2). Description: Inhibition of ANKK1 (unknown origin) at 10 uM by Ambit Kinomescan binding assay relative to control.
In experiment [6] the target is Serine/threonine-protein kinase N2 (Homo sapiens) (UniProt Q16513). Description: Inhibition of PKN2 Lys2 labeling site in human A-375 cells at 0.05 uM by KiNativ Profiling analysis relative to control. It counts as cell-based.
The target in experiment [7] is Serine/threonine-protein kinase 38-like (Homo sapiens) (UniProt Q9Y2H1). As to the kind of experiment: Inhibition of NDR2 Lys1 labeling site harbouring DTGHIYAMKILR in human A-375 cells at 0.5 uM by KiNativ Profiling analysis relative to control. It counts as cell-based.
Serine/threonine-protein kinase 38-like (Homo sapiens), sequence (Q9Y2H1 2-464 limits assumed): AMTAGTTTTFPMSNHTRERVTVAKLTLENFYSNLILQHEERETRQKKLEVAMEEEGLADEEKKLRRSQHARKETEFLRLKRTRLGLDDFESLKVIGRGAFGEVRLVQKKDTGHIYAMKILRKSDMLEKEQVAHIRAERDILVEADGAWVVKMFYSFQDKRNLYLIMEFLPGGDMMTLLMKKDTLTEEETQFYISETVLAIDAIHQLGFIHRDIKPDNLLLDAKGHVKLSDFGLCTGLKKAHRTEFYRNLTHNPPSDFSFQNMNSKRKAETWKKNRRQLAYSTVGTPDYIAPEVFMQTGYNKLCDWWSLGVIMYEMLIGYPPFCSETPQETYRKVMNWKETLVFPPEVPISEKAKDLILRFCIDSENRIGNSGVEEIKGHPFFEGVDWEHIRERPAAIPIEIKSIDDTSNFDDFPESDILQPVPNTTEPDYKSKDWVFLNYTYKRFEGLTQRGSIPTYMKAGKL
The target in experiment [8] is Casein kinase II subunit alpha (Homo sapiens) (UniProt P68400). As to the kind of experiment: Inhibition of CK2a1 in human Huh-7 cells at 10 uM by KiNativ Profiling analysis relative to control. It counts as cell-based.
Casein kinase II subunit alpha (Homo sapiens), sequence (P68400 whole entry, looked up): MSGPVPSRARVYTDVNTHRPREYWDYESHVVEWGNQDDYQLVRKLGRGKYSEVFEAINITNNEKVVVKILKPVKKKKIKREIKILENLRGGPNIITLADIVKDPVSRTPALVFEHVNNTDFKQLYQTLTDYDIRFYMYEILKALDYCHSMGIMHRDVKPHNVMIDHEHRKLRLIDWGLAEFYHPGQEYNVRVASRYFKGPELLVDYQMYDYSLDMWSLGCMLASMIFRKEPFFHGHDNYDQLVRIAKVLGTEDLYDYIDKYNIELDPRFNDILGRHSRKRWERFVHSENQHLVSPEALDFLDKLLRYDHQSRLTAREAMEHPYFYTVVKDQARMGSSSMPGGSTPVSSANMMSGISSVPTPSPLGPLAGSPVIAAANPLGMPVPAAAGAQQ
For experiment [9], the target named is T1, Serine/threonine-protein kinase TAO2 (Homo sapiens) (UniProt Q9UL54).
T1 sequence (whole entry): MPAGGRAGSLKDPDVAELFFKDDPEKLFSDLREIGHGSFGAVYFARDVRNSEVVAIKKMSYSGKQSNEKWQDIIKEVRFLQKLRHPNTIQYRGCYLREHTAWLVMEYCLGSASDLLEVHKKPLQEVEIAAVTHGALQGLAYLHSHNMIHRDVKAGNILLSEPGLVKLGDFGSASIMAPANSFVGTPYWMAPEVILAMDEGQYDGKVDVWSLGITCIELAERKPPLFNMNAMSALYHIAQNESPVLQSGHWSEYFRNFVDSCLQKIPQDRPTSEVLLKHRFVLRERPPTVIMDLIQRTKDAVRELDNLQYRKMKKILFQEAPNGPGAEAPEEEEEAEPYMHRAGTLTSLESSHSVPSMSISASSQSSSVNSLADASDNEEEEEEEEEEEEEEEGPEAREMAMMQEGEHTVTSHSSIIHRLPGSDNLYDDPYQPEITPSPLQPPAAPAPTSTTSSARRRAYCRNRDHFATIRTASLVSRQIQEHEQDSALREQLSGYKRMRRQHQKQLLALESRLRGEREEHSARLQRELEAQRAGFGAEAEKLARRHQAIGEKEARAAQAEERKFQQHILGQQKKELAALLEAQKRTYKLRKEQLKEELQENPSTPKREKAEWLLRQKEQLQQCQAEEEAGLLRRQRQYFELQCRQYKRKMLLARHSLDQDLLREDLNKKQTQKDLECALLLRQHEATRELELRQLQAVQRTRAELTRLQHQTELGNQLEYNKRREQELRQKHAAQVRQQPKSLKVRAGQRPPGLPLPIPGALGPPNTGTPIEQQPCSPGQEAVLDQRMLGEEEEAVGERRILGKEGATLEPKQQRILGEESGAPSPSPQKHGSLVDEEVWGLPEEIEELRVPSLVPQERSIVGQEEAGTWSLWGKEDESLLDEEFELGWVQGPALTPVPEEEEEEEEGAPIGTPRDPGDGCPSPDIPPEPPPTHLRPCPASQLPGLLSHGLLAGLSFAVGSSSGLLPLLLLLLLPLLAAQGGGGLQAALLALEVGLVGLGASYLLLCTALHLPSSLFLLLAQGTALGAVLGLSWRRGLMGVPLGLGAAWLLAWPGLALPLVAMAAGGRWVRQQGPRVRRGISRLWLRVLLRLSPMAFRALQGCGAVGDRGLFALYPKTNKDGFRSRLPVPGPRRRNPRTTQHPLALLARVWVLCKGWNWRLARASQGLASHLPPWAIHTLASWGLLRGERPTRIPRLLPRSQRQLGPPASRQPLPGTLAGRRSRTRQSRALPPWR
As to the kind of experiment: Inhibition of TAO2 Lys2 labeling site in human Huh-7 cell lysate at 1 uM by KiNativ Profiling analysis relative to control. The format is subcellular.

Experiment [10] addresses Serine/threonine-protein kinase 26 (Homo sapiens) (UniProt Q9P289). As to the kind of experiment: Inhibition of MST4 Lys2 labeling site in human Huh-7 cell lysate at 1 uM by KiNativ Profiling analysis relative to control. The format is subcellular.
Experiment [11] addresses STE20/SPS1-related proline-alanine-rich protein kinase (Homo sapiens) (UniProt Q9UEW8). Description: Inhibition of STLK3 Lys2 labeling site in human Huh-7 cell lysate at 1 uM by KiNativ Profiling analysis relative to control. The format is subcellular.
For experiment [12], the target named is RAF proto-oncogene serine/threonine-protein kinase (Homo sapiens, UniProt P04049). As to the kind of experiment: Inhibition of RAF1 Lys2 labeling site in human Huh-7 cell lysate at 1 uM by KiNativ Profiling analysis relative to control. It counts as subcellular.
RAF proto-oncogene serine/threonine-protein kinase, sequence (P04049 whole entry): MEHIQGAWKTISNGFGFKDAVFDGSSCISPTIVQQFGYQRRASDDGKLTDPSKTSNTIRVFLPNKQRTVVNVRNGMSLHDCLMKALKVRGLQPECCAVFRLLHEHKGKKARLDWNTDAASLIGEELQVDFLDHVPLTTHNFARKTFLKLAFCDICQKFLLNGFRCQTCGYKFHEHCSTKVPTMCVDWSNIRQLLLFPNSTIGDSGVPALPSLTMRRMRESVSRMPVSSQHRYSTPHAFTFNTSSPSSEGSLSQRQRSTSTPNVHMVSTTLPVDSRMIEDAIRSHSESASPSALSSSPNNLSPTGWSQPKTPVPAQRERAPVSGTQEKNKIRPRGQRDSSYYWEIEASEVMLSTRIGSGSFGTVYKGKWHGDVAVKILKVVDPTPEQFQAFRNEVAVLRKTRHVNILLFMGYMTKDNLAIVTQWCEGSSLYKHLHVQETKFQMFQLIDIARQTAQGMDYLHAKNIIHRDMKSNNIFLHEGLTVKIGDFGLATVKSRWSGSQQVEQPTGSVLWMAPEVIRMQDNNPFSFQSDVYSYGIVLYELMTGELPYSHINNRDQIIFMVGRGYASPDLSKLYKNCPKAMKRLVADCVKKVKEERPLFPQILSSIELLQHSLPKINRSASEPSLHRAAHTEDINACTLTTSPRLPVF
Experiment [13] addresses Serine/threonine-protein kinase MARK2 (Homo sapiens) (UniProt Q7KZI7). Description: Inhibition of MARK2 Lys2 labeling site harbouring DLKAENLLLDADMNIK in human Huh-7 cell lysate at 1 uM by KiNativ Profiling analysis relative to control. The format is subcellular.
Experiment [14] deals with Serine/threonine-protein kinase WNK2 (Homo sapiens) (UniProt Q9Y3S1). As to the kind of experiment: Inhibition of Wnk2 ACT labeling site in human Huh-7 cells at 1 uM by KiNativ Profiling analysis relative to control. The format is cell-based.
Serine/threonine-protein kinase WNK2 (Homo sapiens), sequence (Q9Y3S1 whole entry): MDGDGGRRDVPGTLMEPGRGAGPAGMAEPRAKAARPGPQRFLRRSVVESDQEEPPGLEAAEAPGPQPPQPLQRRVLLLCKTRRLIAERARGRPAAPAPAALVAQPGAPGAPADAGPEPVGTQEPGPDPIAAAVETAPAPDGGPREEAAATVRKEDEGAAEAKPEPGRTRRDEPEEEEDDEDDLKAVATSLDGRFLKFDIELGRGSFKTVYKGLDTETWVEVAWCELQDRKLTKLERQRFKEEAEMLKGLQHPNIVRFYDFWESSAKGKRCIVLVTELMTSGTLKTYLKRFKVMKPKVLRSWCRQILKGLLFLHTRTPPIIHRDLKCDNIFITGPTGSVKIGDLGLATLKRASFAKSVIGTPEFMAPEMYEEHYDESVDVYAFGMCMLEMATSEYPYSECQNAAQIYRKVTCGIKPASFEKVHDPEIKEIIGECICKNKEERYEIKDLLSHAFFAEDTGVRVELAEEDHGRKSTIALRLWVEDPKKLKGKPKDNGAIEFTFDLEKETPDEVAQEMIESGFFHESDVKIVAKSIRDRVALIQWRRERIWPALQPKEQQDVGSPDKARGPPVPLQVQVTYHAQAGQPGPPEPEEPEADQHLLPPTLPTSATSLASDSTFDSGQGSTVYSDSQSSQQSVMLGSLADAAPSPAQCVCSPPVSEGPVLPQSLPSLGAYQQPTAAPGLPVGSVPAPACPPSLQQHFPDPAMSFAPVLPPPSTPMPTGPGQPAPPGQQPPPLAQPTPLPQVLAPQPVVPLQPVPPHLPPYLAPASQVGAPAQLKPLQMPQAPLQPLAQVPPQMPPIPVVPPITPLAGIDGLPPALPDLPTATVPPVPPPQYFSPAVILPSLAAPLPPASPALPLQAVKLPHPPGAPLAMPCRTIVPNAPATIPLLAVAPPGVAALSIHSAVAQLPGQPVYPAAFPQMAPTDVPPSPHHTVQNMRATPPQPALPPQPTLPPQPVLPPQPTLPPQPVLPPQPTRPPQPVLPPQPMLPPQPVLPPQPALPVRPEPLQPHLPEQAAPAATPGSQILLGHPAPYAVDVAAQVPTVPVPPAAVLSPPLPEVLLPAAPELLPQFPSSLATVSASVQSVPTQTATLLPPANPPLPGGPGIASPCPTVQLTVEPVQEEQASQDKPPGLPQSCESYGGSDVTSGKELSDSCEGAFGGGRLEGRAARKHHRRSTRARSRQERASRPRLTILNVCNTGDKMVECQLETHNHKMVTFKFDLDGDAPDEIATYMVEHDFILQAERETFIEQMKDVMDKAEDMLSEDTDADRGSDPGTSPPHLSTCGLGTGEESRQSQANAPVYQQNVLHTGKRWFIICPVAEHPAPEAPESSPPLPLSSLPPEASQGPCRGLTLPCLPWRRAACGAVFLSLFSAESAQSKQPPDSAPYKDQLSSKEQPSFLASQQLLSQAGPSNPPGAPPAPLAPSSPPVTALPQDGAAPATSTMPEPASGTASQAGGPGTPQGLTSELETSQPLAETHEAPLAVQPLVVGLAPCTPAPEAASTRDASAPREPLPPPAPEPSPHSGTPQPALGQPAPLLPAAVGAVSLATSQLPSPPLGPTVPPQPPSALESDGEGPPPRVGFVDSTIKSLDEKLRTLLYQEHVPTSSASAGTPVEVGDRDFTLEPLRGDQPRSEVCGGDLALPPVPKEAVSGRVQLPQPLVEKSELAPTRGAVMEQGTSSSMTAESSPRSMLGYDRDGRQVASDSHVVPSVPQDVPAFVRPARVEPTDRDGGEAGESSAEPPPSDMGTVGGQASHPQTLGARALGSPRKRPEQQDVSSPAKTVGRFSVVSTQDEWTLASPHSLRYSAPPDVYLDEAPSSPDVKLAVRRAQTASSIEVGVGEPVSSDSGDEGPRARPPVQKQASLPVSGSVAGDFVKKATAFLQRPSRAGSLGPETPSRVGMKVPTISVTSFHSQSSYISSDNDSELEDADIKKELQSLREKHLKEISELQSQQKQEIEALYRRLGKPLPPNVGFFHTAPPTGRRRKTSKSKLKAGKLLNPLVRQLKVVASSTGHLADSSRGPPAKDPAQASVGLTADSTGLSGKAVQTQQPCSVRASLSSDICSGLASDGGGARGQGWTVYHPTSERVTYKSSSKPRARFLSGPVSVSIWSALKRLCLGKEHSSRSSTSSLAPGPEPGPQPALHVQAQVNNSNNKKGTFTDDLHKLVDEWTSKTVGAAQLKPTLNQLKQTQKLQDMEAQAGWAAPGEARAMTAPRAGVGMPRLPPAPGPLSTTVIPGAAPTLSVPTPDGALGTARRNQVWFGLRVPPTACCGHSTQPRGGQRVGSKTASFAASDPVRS
Experiment [15] concerns the target T2, Phosphatidylinositol 5-phosphate 4-kinase type-2 gamma (Homo sapiens) (UniProt Q8TBX8).
T2 sequence (whole entry): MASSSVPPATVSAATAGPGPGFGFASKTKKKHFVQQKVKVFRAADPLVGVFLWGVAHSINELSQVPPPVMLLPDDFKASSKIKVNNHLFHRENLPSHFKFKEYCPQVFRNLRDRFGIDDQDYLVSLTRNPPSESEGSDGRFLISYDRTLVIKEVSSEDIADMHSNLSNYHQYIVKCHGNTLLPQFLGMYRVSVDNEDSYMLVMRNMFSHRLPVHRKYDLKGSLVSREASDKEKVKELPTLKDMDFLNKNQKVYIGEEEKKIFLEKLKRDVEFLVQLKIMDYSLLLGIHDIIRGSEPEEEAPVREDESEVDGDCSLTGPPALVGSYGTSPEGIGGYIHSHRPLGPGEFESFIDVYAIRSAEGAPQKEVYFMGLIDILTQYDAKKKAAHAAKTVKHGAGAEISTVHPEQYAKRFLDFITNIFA
As to the kind of experiment: Inhibition of PIP4K2C ATP labeling site harbouring TLVIKEVSSEDIADMHSNLSNYHQYIVK in human Huh-7 cells at 1 uM by KiNativ Profiling analysis relative to control. The format is cell-based.

Serine/threonine-protein kinase 26 (Homo sapiens), sequence (Q9P289 2-416 limits assumed): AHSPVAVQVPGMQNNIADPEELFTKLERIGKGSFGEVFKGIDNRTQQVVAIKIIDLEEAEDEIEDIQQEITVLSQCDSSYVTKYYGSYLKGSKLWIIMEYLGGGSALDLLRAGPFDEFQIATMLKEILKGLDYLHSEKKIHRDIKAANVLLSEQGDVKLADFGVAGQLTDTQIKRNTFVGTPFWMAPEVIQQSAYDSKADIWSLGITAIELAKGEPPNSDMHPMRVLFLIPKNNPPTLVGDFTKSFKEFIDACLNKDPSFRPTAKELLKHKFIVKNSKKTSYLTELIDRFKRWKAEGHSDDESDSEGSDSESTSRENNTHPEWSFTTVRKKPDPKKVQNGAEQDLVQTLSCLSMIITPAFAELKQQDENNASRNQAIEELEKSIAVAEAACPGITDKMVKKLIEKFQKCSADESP

With `CCN1CCN(Cc2ccc(NC(=O)c3ccc(C)c(/C=C/c4cnc5[nH]ccc5c4OC)c3)cc2C(F)(F)F)CC1`, the inhibition in [1] is 28.7%; in experiment [2], 72%; in experiment [3], 20.7%; in experiment [4], 32.7%.

In the case of `CCN1CCN(Cc2ccc(NC(=O)c3ccc(C)c(Oc4ccnc5[nH]ccc45)c3)cc2C(F)(F)F)CC1`, the inhibition worked out at 23% in experiment [5], 5.3% in experiment [6], 16.9% in [7] and 12.3% in [8].

As to `CNc1cc(Oc2cc(C(=O)Nc3cc(N4CCN(C)CC4)cc(C(F)(F)F)c3)ccc2C)ncn1`, the inhibition was 7.5% in experiment [9]; -0.3% in experiment [10]; 9.8% in experiment [11]; 23.2% in [12]; -4.1% in [13]; 21.6% in experiment [14]. Further, the inhibition in experiment [15] came out at 12.8%.

As usually defined, the inhibition is the drop in the measured response relative to a control, in per cent.
